The text below walks through data of patent publication US7041677B2, “Use of monochloroflosequinan in the treatment of sexual dysfunction” (R.T. Alamo Ventures I, LLC, priority 2002, dated 2006).

The target in this experiment is T1, PDE6 (Bos taurus, UniProt P11541+P23439).
T1 construct: from tissue; host or cells: bovine retinal rod outer segments
T1 sequence (P11541 2-856 limits assumed): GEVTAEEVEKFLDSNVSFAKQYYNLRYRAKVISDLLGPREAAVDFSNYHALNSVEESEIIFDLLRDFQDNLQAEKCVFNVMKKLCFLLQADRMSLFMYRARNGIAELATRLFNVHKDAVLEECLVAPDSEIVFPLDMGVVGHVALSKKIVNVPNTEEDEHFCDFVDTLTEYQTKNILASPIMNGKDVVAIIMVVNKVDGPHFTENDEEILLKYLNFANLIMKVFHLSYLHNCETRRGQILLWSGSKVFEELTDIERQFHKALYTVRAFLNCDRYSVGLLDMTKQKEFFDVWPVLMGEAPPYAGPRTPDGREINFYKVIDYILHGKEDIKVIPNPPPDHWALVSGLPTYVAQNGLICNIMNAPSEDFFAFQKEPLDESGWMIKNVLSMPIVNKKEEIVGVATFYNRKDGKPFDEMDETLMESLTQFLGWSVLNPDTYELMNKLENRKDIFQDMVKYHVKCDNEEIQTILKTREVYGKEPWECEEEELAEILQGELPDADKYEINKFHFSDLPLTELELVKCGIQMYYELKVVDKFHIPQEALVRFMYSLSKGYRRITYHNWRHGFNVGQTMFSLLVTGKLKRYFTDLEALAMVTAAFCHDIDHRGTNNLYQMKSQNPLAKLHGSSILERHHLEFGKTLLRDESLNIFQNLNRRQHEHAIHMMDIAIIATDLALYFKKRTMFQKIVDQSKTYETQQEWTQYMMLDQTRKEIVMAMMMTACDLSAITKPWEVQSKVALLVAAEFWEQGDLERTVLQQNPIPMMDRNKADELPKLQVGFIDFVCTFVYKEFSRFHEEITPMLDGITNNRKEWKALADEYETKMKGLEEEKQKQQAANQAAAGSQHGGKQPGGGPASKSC
T1 sequence (P23439 2-850 limits assumed): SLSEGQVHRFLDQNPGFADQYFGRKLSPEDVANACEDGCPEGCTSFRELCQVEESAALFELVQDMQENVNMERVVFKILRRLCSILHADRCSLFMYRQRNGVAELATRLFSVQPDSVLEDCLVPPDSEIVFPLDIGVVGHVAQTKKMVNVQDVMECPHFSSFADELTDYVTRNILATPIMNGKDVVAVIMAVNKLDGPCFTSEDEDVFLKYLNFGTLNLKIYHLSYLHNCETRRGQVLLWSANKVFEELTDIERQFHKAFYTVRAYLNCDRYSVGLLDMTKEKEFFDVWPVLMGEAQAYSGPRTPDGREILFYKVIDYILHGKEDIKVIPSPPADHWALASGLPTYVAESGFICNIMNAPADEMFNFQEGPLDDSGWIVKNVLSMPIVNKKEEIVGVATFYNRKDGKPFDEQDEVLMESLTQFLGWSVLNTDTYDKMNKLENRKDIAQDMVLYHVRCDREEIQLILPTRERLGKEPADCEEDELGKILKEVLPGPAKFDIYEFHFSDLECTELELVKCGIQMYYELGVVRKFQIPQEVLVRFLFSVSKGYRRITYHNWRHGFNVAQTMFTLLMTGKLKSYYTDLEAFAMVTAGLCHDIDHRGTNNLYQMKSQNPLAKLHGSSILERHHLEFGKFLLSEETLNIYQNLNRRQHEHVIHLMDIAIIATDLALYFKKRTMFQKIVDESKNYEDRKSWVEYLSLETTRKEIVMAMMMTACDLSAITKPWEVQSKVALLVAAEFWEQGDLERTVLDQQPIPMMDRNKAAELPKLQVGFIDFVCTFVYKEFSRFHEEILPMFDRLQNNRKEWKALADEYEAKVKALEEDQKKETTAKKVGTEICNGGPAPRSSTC
Kind of experiment: PDE6 enzyme inhibition assay. It is filed as biochemical, bovine. The note with it: 200 μM, 25° C., 1% DMSO vehicle.

Regarding `Cn1cc([S@+]([O-])CCl)c(=O)c2ccc(F)cc21` (single isomer, unassigned) [(+)-enantiomer of monochloroflosequinan], the “inhibition of PDE6” value is reported as “greater than 50%”. Take `Cn1cc([S@@+]([O-])CCl)c(=O)c2ccc(F)cc21` (single isomer, unassigned) [(−)-enantiomer of monochloroflosequinan]: the “inhibition of PDE6” value was “greater than 50%”.
